Square brackets hold non-standard residues; d marks the D form. Peptide text beside a SMILES is read from it. * marks the point of attachment. Crotonyl(E) = C/C=C/C(=O)*; Dab = NCC[C@H](N)C(=O)O; Aib = CC(C)(N)C(=O)O
T1: CBP80/CBP20 complex (Homo sapiens, UniProt Q09161)
T1 sequence (Q09161 1-790): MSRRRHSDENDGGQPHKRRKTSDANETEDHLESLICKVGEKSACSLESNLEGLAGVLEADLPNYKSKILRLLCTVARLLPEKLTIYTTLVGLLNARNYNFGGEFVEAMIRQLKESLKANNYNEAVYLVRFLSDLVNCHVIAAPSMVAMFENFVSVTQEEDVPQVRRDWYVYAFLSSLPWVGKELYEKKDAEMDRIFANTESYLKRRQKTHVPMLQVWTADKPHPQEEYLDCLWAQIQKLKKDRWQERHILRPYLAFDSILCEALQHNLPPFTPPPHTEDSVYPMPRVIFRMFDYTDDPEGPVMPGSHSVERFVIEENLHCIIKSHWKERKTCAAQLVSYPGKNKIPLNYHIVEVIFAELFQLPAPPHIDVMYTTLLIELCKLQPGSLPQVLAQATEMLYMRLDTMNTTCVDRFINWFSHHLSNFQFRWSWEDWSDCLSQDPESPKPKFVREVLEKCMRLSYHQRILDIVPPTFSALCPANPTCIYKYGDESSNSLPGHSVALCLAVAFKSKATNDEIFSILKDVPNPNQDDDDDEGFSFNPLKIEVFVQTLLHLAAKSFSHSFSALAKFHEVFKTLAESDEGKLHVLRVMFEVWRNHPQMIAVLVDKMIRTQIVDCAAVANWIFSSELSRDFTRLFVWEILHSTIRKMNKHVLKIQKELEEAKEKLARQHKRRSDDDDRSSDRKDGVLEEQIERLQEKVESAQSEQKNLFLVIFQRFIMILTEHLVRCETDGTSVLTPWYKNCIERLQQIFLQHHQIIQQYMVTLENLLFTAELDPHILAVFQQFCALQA
T1 sequence (P52298 1-156 partner): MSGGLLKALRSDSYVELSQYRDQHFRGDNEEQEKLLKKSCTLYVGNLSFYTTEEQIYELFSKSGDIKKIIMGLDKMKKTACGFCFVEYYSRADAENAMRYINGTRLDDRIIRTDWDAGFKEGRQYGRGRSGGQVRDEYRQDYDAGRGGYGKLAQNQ

T2: CBP80/CBP20 complex (human, UniProt Q09161 20-790; P52298 1-156, limits assumed)
T2 construct: Used in the fluorescence polarization assays; In the crystal it also carried the cap analogue (m7GpppG / m7GpppA); also called CBC complex; CBC
T2 sequence (looked up) 1: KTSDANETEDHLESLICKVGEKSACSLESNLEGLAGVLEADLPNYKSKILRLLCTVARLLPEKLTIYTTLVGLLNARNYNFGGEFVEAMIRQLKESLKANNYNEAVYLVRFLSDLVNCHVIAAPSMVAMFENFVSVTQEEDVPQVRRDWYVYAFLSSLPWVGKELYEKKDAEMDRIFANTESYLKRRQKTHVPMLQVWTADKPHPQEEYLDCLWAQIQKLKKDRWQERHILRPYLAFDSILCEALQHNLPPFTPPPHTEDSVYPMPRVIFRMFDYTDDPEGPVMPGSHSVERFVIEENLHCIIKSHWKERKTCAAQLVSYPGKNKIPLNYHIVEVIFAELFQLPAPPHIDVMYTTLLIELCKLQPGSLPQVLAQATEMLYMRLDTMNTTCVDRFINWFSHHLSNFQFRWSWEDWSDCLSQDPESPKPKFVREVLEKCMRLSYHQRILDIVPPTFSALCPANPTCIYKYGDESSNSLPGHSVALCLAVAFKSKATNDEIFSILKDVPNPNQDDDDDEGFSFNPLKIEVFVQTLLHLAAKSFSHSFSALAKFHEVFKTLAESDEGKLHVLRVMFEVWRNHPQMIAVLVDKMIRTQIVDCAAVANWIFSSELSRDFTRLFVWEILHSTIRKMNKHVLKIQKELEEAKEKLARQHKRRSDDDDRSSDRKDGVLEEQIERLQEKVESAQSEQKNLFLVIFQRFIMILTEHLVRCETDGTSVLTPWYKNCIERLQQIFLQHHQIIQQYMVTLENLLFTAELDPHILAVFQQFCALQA
T2 sequence (looked up) 2: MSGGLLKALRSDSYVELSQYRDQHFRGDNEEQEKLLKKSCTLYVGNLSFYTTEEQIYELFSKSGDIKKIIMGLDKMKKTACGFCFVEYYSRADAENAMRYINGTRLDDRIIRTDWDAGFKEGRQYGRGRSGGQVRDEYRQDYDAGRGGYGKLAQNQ


Legend:
[1] = target: T1, CBP80/CBP20 complex; assay: fluorescence polarization based competition assay (displacement of FITC-labeled PGC1β peptide); assay type: binding; settings: 1 μM FITC-labeled PGC1β (FITC-Ahx-AMDFDSLLKEAQQSLH-NH2), 30 μM CBP80/CBP20 complex, HEPES buffer pH 7.5
Experimental: The ability of α-MOrPHs to disrupt the PGC1β-CBP80 interaction will be assessed and quantified via a fluorescence polarization-based competition assay, in which disruption of the complex formed between a fluorescein-conjugated PGC1β peptide and CBP80 is measured upon adding increasing concentrations of each inhibitory α-MOrPH (FIG. 5A). […] Initially, the length of the linker in the inhibitory α-MOrPH will be optimized for maximal activity toward disrupting the PGC1β-CBP80 interaction (e.g. using SP1-3, FIG. 4).
(§1) The relative activity of the PGC1β mimics toward disrupting the interaction between CBC and the fluorescein-conjugated PGC1β-derived peptide was measured in a competition assay. Briefly, a fixed amount of CBC and fluorescein-conjugated PGC1β-derived peptide are incubated with increasing amounts of the PGC1β mimic (FIG. 11A). From the resulting dose-dependent inhibition curves, the in vitro CBC inhibitory activity of the PGC1β mimic compound is measured based on their respective half-maximal inhibitory concentration (IC50) (FIG. 5B). Using this assay, various PGC1β mimics were evaluated for their relative ability to target CBC and disrupt its binding interaction with PGC1β. […] Short peptides derived from the C-terminal domain of PGC1β and PRC proteins, two other members of the PGC1 family of transcriptional coactivators, were also to bind CBC and inhibits its interaction with the fluorescein-labeled PGC1β peptide with IC50 values in the low micromolar range.
IC50 values were determined by adapting the fluorescence polarization assay described above to a competition format. 1 μM of the FITC-labeled PGC1β peptide (FITC-Ahx-AMDFDSLLKEAQQSLH-NH2) was incubated with 30 μM of the CBP80-CBP20 complex in HEPES Buffer (10 mM HEPES [pH 7.5], 50 mM NaCl and 5 mM 2-mercaptoethanol). The inhibitory peptide was added to the solution at varying concentrations, typically ranging from 1 to 200 μM. Half-maximal inhibitory concentration (IC50) values were calculated from the resulting inhibition curves as given by dose-dependent decrease in the fluorescence polarization signal. All measurements were performed at least in duplicates.

[2] = target: T2, CBP80/CBP20 complex; assay: FP competition assay; 1 µM FITC-Ahx-…-NH2 as competitor, 30 µM CBP80/CBP20 complex
Experimental: as §1, with “(IC₅₀)” for “(IC50)”, “IC₅₀” for “IC50”
^aAc = acetyl; Biot = biotin; Ahx = 6-aminohexanoic acid; Aib = 2-aminoisobutyric acid; CrtDab = N^γ-crotonyl-2,4-diaminobutyric acid. C-terminal ‘-NH₂’ refers to amidated C-terminal end of the peptide. ^bIC₅₀ was determined using fluorescence polarization based competition assay in the presence of 1 μM of FITC-labeled PGC1β (FITC-Ahx-[…]-NH₂, where FITC is fluorescein-isothiocyanate) and 30 μM of the CBP80/CBP20 complex in HEPES buffer (10 mM HEPES, 50 mM NaCl, 5 mM BME, pH 7.5).
IC₅₀ values were determined by adapting the fluorescence polarization assay described above to a competition format. 1 μM of the FITC-labeled PGC1β peptide (FITC-Ahx-[…]-NH₂) was incubated with 30 μM of the CBP80-CBP20 complex in HEPES Buffer (10 mM HEPES [pH 7.5], 50 mM NaCl and 5 mM 2-mercaptoethanol).

IC50 [1] [µM]	IC50 [2] [µM]	Molecule
< 100		CSCC[C@H](NC(C)=O)C(=O)N[C@@H](C)C(=O)N[C@@H](Cc1ccccc1)C(=O)N[C@@H](CC(=O)O)C(=O)N[C@@H](CO)C(=O)N[C@@H](CC(C)C)C(=O)N[C@@H](CC(C)C)C(=O)N[C@@H](CCCCN)C(=O)NC(C)(C)C(=O)N[C@@H](C)C(=O)N[C@@H](CCC(N)=O)C(=O)N[C@@H](CCC(N)=O)C(=O)N[C@@H](CO)C(N)=O [PGC1β-16, Ac-MAFDSLLK(Aib)AQQS-NH2] (Ac-MAFDSLLK[Aib]AQQS-NH2)
< 100		C/C=C/C(=O)NCC[C@H](NC(=O)[C@H](CC(C)C)NC(=O)[C@H](CC(C)C)NC(=O)[C@H](CO)NC(=O)[C@H](CC(=O)O)NC(=O)[C@H](Cc1ccccc1)NC(=O)[C@H](CC(=O)O)NC(=O)[C@H](CCSC)NC(C)=O)C(=O)N[C@@H](CCC(=O)O)C(=O)N[C@@H](C)C(=O)N[C@@H](CCC(N)=O)C(=O)N[C@@H](CCC(N)=O)C(=O)N[C@@H](CO)C(N)=O [PGC1β-18, Ac-MDFDSLL(CrtDab)EAQQS-NH2] (Ac-MDFDSLL[Dab](Crotonyl(E))EAQQS-NH2)
~35		Ac-AMDFDSLLKEAQQSLH-NH2 [PGC1β-Cterm, Ac-AMDFDSLLKEAQQSLH-NH2]
< 100		Ac-MAFDSLLKAAQQS-NH2 [PGC1β-15, Ac-MAFDSLLKAAQQS-NH2]
< 100		Ac-MAFDSLLKNAAAS-NH2 [PGC1β-13, Ac-MAFDSLLKNAAAS-NH2]
< 100		Ac-MAFDSLLKNAAQS-NH2 [PGC1β-14, Ac-MAFDSLLKNAAQS-NH2]
< 100		Ac-MAFDSMLKAAQQS-NH2 [PGC1β-17, Ac-MAFDSMLKAAQQS-NH2]
> 200		Ac-MDADSLLKEAQQS-NH2 [PGC1β-3A, Ac-MDADSLLKEAQQS-NH2]
> 200		Ac-MDFASLLKEAQQS-NH2 [PGC1β-4A, Ac-MDFASLLKEAQQS-NH2]
64 ± 2		Ac-MDFDALLKEAQQS-NH2 [PGC1β-5A, Ac-MDFDALLKEAQQS-NH2]
> 200		Ac-MDFDSALKEAQQS-NH2 [PGC1β-6A, Ac-MDFDSALKEAQQS-NH2]
> 200		Ac-MDFDSLAKEAQQS-NH2 [PGC1β-7A, Ac-MDFDSLAKEAQQS-NH2]
69		Ac-MDFDSLLKEAQQS-NH2 [PGC1β-wt, Ac-MDFDSLLKEAQQS-NH2]
> 200		Ac-MDFDSLLKEGQQS-NH2 [PGC1β-10A, Ac-MDFDSLLKEGQQS-NH2]
	50	Ac-MAFDSLLKEAQQS-NH2 [PGC1β-2A (Ac-MAFDSLLKEAQQS-NH2)]
	72	Ac-MDFDSLLAEAQQS-NH2 [PGC1β-8A (Ac-MDFDSLLAEAQQS-NH2)]
	56	Ac-MDFDSLLKEAQAS-NH2 [PGC1β-12A (Ac-MDFDSLLKEAQAS-NH2)]
	32	Ac-AMDFDSLLKEAQQSLH-NH2 (also called PGC1β-Cterm peptide; unlabeled version of the PGC1β peptide) [PGC1β-Cterm (Ac-AMDFDSLLKEAQQSLH-NH2)]
	80	Ac-MDFDSLLKEAQQSRRRRRRRR-NH2 [PGC1β-19 (Ac-MDFDSLLKEAQQSRRRRRRRR-NH2)]
	93	Ac-SLDFDDLLKQAQKNLRR-NH2 [PRC-Cterm (Ac-SLDFDDLLKQAQKNLRR-NH2)]
	26	Ac-SLDFDSLLKEAQRSLRR-NH2 [PGC1α-Cterm (Ac-SLDFDSLLKEAQRSLRR-NH2)]

Molecule	IC50 [1] [µM]	IC50 [2] [µM]
Ac-MDFDSLLKEAAQS-NH2 [PGC1β-11A, Ac-MDFDSLLKEAAQS-NH2]	64 ± 2	
